Data set [1] has as its target neuronal nicotinic cholinergic channel receptors (Rattus norvegicus, UniProt P09483+P12390). The conditions noted are these: read-out: Binding Ki. The protocol: A. Protocol For Determination of Nicotinic Cholinergic Channel Receptor Binding Potencies of Ligands
Binding of [^3H]-cytisine ([^3H]-CYT) to nicotinic receptors was accomplished using crude synaptic membrane preparations from whole rat brain (Pabreza et al., Molecular Pharmacol, 1990, 39:9). Washed membranes were stored at −80° C. prior to use. Frozen aliquots were slowly thawed and resuspended in 20 volumes of buffer (containing: 120 mM NaCl, 5 mM KCl, 2 mM MgCl2, 2 mM CaCl2 and 50 mM Tris-Cl, pH 7.4 @ 4° C.). After centrifuging at 20,000×g for 15 minutes, the pellets were resuspended in 30 volumes of buffer. Homogenate (containing 125-150 μg protein) was added to triplicate tubes containing concentrations of test compound and [^3H]-CYT (1.25 nM) in a final volume of 500 μL. Samples were incubated for 60 minutes at 4° C., then rapidly filtered through Whatman GF/B filters presoaked in 0.5% polyethyleneimine using 3×4 mL of ice-cold buffer. The filters are counted in 4 mL of Ecolume® (ICN). Nonspecific binding was determined in the presence of […] (−)-nicotine and values were expressed as a percentage of total binding.

Data set [2] concerns the target neuronal nicotinic cholinergic channels in IMR-32 cells (Homo sapiens, UniProt P30926+P32297). The experiment in a line: 86Rb+ efflux in IMR-32 cells (activation, or inhibition of efflux elicited by (S)-nicotine). The following applies: for inhibition at 1 µM / inhibition at 10 µM / Emax: IMR-32; for inhibition at 10 µM: single dose 10 μM; for EC50 / IMR-32 maximal response / Emax: 86Rb+ efflux; for EC50: activation; for IMR-32 maximal response / Emax: percent relative to the response elicited by 100 μM (S)-nicotine; for Emax: read-out: IMR-32 maximal response. The class given is cell-based. The source says:
For the purpose of directly evaluating the ability of test compounds to functionally activate or inhibit certain subtypes of neuronal nicotinic cholinergic channels, an assay to determine ^86Rb^+Efflux in IMR-32 cells was employed (Protocol B below).
B. Protocols for the Determination of Functional Effects of Cholinerzic Channel Receptor Ligands on Synaptic Transmission
Cells of the IMR-32 human neuroblastoma clonal cell line (ATCC, Rockville, Md.) were maintained in a log phase of growth according to established procedures (Lukas, 1993). Experimental cells were seeded at a density of 500,000 cells/ml into a 24-well tissue culture dish. Plated cells were allowed to proliferate for at least 48 hours before loading with 2 μCi/ml of ^86Rb^+ (35 Ci/mmol) overnight at 37° C. The ^86Rb^+ efflux assays were performed according to previously published protocols (Lukas, R. J., J. Pharmacol. Exp. Ther., 265: 294-302, 1993) except serum-free Dulbecco's Modified Eagle's Medium was used during the ^86Rb^+ loading, rinsing, and agonist-induced efflux steps.
EC50 data and maximal responses (reported as percent relative to the response elicited by 100 μM (S)-nicotine) are shown for selected compounds of the invention. The inhibition data (given for a larger number of compounds) reflect inhibition of the efflux elicited by 100 μM (S)-nicotine for either a single dose (% inhibition at 1 μM or at 10 μM) or over a range of doses (IC50 of inhibition). […] This finding is in agreement with the results of others who have linked dopamine release, which is dependent upon the ion flux in synaptic transmission, to binding at nicotinic receptors (cf., for example, Lippiello and Caldwell, U.S. Pat. No. 5,242,935, issued Sep. 7, 1993; Caldwell and Lippiello, U.S. Pat. No. 5,248,690, issued Sep. 28, 1993; and Wonnacott et al., Prog. Brain Res., 79: 157-163 (1989)).

Setting [3] is: displacement of [3H]-cytisine (1.25 nM), whole rat brain membranes, Ki from IC50 by Cheng and Prusoff correction.
[4] abbreviates: inhibition of the efflux elicited by 100 μM (S)-nicotine, single dose 1 μM.
[5] abbreviates: inhibition of the efflux elicited by 100 μM (S)-nicotine.

Where a name gives a salt, the structure may show the parent alone. Read-outs that look alike come from different tables or passages of the source.

Chain of neuronal nicotinic cholinergic channel receptors (P09483 31-630): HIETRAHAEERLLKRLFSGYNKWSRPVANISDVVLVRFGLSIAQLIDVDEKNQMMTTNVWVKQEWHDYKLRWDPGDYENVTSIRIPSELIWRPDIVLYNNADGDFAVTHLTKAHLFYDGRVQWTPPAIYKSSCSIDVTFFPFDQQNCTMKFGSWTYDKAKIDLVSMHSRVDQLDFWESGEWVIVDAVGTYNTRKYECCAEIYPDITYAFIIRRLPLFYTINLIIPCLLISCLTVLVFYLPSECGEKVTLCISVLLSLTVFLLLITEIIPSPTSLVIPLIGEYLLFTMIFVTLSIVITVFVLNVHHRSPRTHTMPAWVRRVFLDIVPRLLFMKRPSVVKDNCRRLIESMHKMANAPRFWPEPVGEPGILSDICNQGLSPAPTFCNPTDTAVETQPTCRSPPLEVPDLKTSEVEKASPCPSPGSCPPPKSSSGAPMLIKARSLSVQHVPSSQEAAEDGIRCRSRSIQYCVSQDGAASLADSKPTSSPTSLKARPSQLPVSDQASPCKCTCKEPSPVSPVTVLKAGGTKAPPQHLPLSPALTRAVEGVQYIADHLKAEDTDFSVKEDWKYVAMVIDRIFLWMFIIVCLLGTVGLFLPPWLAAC
Chain of neuronal nicotinic cholinergic channel receptors (P12390 25-500): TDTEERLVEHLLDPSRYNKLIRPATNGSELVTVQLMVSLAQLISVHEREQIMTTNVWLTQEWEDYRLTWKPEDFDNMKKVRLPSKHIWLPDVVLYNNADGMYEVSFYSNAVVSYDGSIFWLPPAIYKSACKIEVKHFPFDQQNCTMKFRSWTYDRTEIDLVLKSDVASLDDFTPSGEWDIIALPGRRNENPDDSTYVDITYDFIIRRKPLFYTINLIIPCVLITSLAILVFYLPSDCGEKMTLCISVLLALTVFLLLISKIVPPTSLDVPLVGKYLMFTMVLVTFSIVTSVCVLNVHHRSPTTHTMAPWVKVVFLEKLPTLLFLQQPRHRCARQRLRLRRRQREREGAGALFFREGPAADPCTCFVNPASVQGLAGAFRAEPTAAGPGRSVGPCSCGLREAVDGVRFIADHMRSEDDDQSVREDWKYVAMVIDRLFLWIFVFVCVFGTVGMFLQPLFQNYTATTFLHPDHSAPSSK

As a reminder, the Ki is a measure of affinity in units of concentration, obtained from inhibition or displacement. The inhibition is the drop in the measured response relative to a control, in per cent. A low value points to little suppression. Regarding `CN1CCC[C@H]1COc1cncc(-c2ccc(F)cc2)c1` [Example 11, 5-(4-Fluorophenyl)-3-(1-methyl-2-(S)-pyrrolidinylmethoxy)pyridine Dihydrochloride], in data set [1] (setting [3]), the Ki amounted to 0.11 nM. The inhibition at 1 µM in data set [2] (setting [4]) was determined as 38%.

Regarding `Cc1ccccc1-c1cncc(OC[C@@H]2CCCN2C)c1` [Example 45, 5-(2-Methylphenyl)-3-(1-methyl-2-(S)-pyrrolidinylmethoxy)pyridine Dihydrochloride], the Ki in data set [1] (setting [3]) was 1.1 nM. Also, the inhibition at 1 µM in data set [2] (setting [4]) turned out to be 41%. The compound also showed an inhibition at 10 µM in data set [2] (setting [5]) of 100%.

On to `COc1ccc(-c2cncc(OC[C@@H]3CCCN3C)c2)cc1` [Example 3, 5-(4-Methoxyphenyl)-3-(1-methyl-2-(S)-pyrrolidinylmethoxy)pyridine Dihydrochloride], for which the inhibition constant (Ki) in data set [1] (setting [3]) amounted to 0.32 nM. In data set [2] (setting [4]), this compound displayed an inhibition at 1 µM of 39%.

`CN1CCC[C@H]1COc1cncc(C(=O)N2CCCC2)c1` [Example 19, 5-(1-Pyrrolidinylcarbonyl)-3-(1)-methyl-2-(S)-pyrrolidinylmethoxy)pyridine Dihydrochloride]: the Ki in data set [1] (setting [3]) came out at 20 nM. The compound further gave an inhibition at 1 µM in data set [2] (setting [4]) of 14%.

With `CN1CCC[C@@H]1COc1cnc(Cl)c(-c2cncnc2)c1` [Example 180, 6-Chloro-3-(1-methyl-2-(R)-pyrrolidinylmethoxy)-5-pyrimidinylpyridine Hydrochloride], the Ki in data set [1] (setting [3]) was 4.8 nM.

For orientation: melting point means the temperature of the solid-liquid transition. For `CN1CCC[C@H]1COc1cncc(-c2ccccc2)c1.Cl.Cl` [Example 90, 5-Phenyl-3-(1-methyl-2-(S)-pyrrolidinylmethoxy)pyridine Dihydrochloride], the melting point was in the range of 88 to 90 °C. Further, the Ki in data set [1] (setting [3]) turned out to be 0.111 nM.

Take `CN1CCC[C@H]1COc1cncc(CCc2ccncc2)c1` [Example 29, 5-(2-(4-Pyridinnyl)ethyl)-3-(1-methyl-2-(S)-pyrrolidinnylmethoxy)pyridine Trihydrochloride]: the Ki in data set [1] (setting [3]) came to 0.064 nM. This compound displayed an inhibition at 1 µM in data set [2] (setting [4]) of 32%.

As to `CN1CCC[C@H]1COc1cncc(-c2ccc(C(F)(F)F)cc2)c1` [Example 46, 5-(4-(Trifluoromethyl)phenyl)-3-(1)-methyl-2-(S)-pyrrolidinylmethoxy)pyridine Dihydrochloride], the Ki in data set [1] (setting [3]) was found to be 0.15 nM. The same compound displayed an inhibition at 1 µM in data set [2] (setting [4]) of 37%.

Turning to `CN1CC[C@@H]1COc1cncc(-c2ccsc2)c1` [Example 91, 5-(3-Thienyl)-3-(1-methyl-2-(R)-azetdinylmethoxy)pyridine Dihydrochloride], in data set [1], the Ki was 1.84 nM.

`CN1CCC[C@H]1COc1cncc(-c2cccc([N+](=O)[O-])c2)c1` [Example 1, 5-(3-Nitrophenyl)-3-(1-methyl-2-(S)-pyrrolidinylmethoxy)pyridine Dihydrochloride]: in data set [1] (setting [3]), the Ki was found to be 0.46 nM. In data set [2] (setting [4]), this compound yielded an inhibition at 1 µM of 13%.

By EC50 is commonly meant the concentration at which the effect is half-maximal. Low readings indicate an effect from little substance, high ones a need for much substance. As to “5-(5,5-Dimethyl-1,3-hexadienyl)-6-chloro-3-(2-(R)-pyrrolidinylmethoxy)pyridine Citric Acid Salt [Example 55]”, the inhibition constant Ki in data set [1] (setting [3]) was determined as 4.6 nM. Also, in data set [2], the EC50 is greater than 10000 µM and the IMR-32 maximal response was determined as 24.5%.

On to `COC(=O)c1cncc(OC[C@@H]2CCCN2C)c1` [Example 27, 5-Methoxycarbonol-3-(1-methyl-2-(S)-pyrrolidinylmethoxy)pyridine Dihydrochloride], for which, in data set [1] (setting [3]), the Ki was 1.5 nM. In data set [2] (setting [4]), this compound displayed an inhibition at 1 µM of 26%.

In the case of “5-Hexenyl-3-(1-methyl-2-(S)-pyrrolidinylmethoxy)pyridine Dihydrochloride [Example 12]”, in data set [1] (setting [3]), the Ki came out at 0.32 nM. In addition, the “% Inhibition @ 1 μM” value in data set [2] (setting [4]) stood at 25%.

`CN1CCC[C@H]1COc1cncc(-c2cccnc2)c1.Cl.Cl` [Example 7, 5-(3-Pyridyl)-3-(1-methyl-2-(S)-pyrrolidinylmethoxy)pyridine Dihydrochloride] showed a melting point of 155 to 160 °C. In addition, the Ki in data set [1] (setting [3]) is 0.27 nM.

As for `CN1CCC[C@H]1COc1cncc(-c2cccc3ccccc23)c1` [Example 2, 5-(1-Naphthalenyl)-3-(1-methyl-2-(S)-pyrrolidinylmethoxy)pyridine Dihydrochloride], the Ki in data set [1] (setting [3]) was determined as 4.2 nM. In data set [2] (setting [4]), this compound registered an inhibition at 1 µM of 47%.

`CN1CCC[C@H]1COc1cncc(-c2cc(C(F)(F)F)cc(C(F)(F)F)c2)c1` [Example 37, 5-(3,5-bis(Trifluoromehyl)phenyl)-3-(1-methyl-2-(S)-pyrrolidinylmethoxy)pyridine Dihydrochloride]: the Ki in data set [1] (setting [3]) was 2.4 nM. In data set [2] (setting [4]), this compound gave an inhibition at 1 µM of 41%.

On to `CCCCC#Cc1cncc(OC[C@@H]2CCN2)c1.Cl.Cl` [Example 58, 5-Hexynyl-3-(2-(S)-azetidinylmethoxy)pyridine Dihydrochloride], for which the inhibitory constant (Ki) in data set [1] (setting [3]) came to 0.056 nM. In data set [2], the half-maximal effective concentration (EC50) came out at 0.8 µM and the IMR-32 maximal response worked out at 47%.

For the compound `CN1CCC[C@H]1COc1cncc(-c2cnc3ccccc3c2)c1` [Example 35, 5-(3-Ouinolinyl)-3-(1-methyl-2-(S)-pyrrolidinylmethoxy)pyridine Trihydrochloride], in data set [1] (setting [3]), the Ki came to 0.39 nM. Besides, 1 µM produced 34% inhibition in data set [2] (setting [4]).

With `CN1CCC[C@H]1COc1cncc(-c2cccs2)c1` [Example 6, 5-(2-Thienyyl)-3-(1-methyl-2-(S)-pyrrolidinylmethoxy)pyridine Dihydrochloride], the Ki in data set [1] (setting [3]) amounted to 0.31 nM. The same compound registered an inhibition at 1 µM in data set [2] (setting [4]) of 28%.

`CN1CCC[C@H]1COc1cncc(-c2ccccc2C=O)c1` [Example 44, 5-(2-Formylphenyl)-3-(1-methyl-2-(S)-pyrrolidinylmethoxy)pyridine Dihydrochloride]: in data set [1] (setting [3]), the Ki stood at 0.56 nM. Also, at 1 µM the inhibition in data set [2] (setting [4]) was 30%. This compound also yielded an inhibition at 10 µM in data set [2] (setting [5]) of 97%.

In the case of `CN1CCC[C@H]1COc1cncc(-c2ccc3ccccc3c2)c1` [Example 31, 5-(2-Naphthalenyl-3-(1-methyl-2-(S)-pyrrolidinylmethoxy)pyridine Dihydrochloride], the Ki in data set [1] (setting [3]) amounted to 0.33 nM. Besides, in data set [2] (setting [4]), the inhibition at 1 µM turned out to be 37%.

Regarding `C=Cc1cc(OC[C@@H]2CCN2)cnc1Cl.Cl.Cl` [Example 165, 3-(2-(S)-Azetidinylmethoxy)-6-chloro-5-ethenylpyridine Dihydrochloride], the melting point was 121 °C (dec.). Besides, in data set [2], the Emax is 127%.

`CN1CCC[C@H]1COc1cnc(Cl)c(Br)c1.Cl.Cl` [Example 24, 5-Bromo-6-chloro-3-(1-methyl-2-(S)-pyrrolidinylmethoxy)pyridine Dihydrochloride] registered a melting point of 189 to 191 °C. This compound also gave an inhibition at 1 µM in data set [2] (setting [4]) of 17%.

The compound `CN1CCC[C@@H]1COc1cncc(-c2ccccc2)c1.Cl.Cl` [Example 53, 5-Phenyl-3-(1-methyl-2-(R)-pyrrolidinylmethoxy)pyridine Dihydrochloride] returned a melting point of 89 to 90 °C. Besides, the inhibition at 1 µM in data set [2] (setting [4]) is 35%. The compound also came in with an inhibition at 10 µM in data set [2] (setting [5]) of 100%.

Take `C=Cc1cc(OC[C@@H]2CCCN2)cnc1C=C.Cl` [Example 193, 5,6-Diethenyl-3-(2-(S)-pyrrolidinylmethoxy)pyridine Hydrochloride]: the melting point is 186 to 188 °C. Further, in data set [2], the Emax is 9.5%.

For `Cl.Cl.c1ccc(-c2cncc(OC[C@H]3CCCN3)c2)cc1` [Example 52, 5-Phenyl-3-(2-(R)-pyrrolidinylmethoxy)pyridine Dihydrochloride], the melting point was in the range of 129 to 131 °C. In addition, in data set [2] (setting [4]), the inhibition at 1 µM is 22%. In data set [2] (setting [5]), this compound returned an inhibition at 10 µM of 88%.

The record behind these values is patent US6437138B1, “3-pyridyloxymethyl heterocyclic ether compounds useful in controlling chemical synaptic transmission” (priority 1996, dated 2002).
